{"source": "patent US9969771B2", "about": "“Tetrapeptide having effect of inhibiting VEGF-induced angiogenesis and use thereof” (AVIXGEN INC., priority 2015, dated 2018)", "key": {"VEGFR-1": {"molecular_target": "T1, VEGFR-1 (Homo sapiens, UniProt P17948)", "T1 construct": "endogenous in cells; host or cells: HUVEC lysate", "T1 sequence (P17948 27-1338)": "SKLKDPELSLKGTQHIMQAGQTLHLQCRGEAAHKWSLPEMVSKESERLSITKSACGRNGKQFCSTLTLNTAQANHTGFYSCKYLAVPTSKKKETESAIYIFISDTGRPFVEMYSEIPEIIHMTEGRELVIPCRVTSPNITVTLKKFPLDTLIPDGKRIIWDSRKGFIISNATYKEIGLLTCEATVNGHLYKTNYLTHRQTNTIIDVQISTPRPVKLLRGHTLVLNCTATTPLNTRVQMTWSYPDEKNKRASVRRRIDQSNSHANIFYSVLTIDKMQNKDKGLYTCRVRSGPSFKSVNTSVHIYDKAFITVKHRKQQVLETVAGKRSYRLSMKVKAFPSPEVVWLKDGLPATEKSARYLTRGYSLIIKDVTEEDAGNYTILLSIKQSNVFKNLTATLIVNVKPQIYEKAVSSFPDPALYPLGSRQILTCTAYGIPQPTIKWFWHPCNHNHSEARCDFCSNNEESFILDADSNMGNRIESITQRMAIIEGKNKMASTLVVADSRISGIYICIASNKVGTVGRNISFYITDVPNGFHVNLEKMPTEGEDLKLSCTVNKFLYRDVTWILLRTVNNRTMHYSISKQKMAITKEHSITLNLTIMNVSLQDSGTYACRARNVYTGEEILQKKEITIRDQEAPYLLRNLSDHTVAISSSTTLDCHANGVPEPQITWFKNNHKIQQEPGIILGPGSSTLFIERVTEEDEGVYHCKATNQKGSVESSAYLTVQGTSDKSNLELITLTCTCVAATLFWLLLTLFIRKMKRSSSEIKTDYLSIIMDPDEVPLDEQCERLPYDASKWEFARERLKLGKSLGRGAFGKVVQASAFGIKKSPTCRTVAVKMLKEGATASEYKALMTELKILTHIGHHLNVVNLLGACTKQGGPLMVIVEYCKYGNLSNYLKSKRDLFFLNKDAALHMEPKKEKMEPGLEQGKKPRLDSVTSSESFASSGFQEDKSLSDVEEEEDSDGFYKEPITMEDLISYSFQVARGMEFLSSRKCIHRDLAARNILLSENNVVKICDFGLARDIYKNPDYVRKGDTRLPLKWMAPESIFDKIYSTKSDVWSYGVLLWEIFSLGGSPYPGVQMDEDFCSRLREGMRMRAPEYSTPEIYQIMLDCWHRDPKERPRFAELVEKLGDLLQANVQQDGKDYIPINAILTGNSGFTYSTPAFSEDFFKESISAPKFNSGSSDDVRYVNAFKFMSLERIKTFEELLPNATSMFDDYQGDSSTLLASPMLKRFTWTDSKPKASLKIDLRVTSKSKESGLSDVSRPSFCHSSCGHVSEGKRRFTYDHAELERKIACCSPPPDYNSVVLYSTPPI", "experiment": "VEGFR pull-down assay using biotin-labeled RLYE, VEGFR-1", "format": "binding", "conditions": "HUVEC lysate", "protocol": "(§1) HUVECs were lysed in a pull-down buffer [50 mM Tris-HCl (pH 8.0), 150 mM sodium chloride, 1.0% NP-40, 0.5% sodium deoxycholate and 0.1% SDS]. A lysate ([…] of proteins) was reacted with biotin-labeled RLYE (SEQ ID NO: 2) (0.15 or 1.5 nM) for 1 hour, and reacted with streptavidin-agarose beads ([…]) at 4° C. for 1 hour. RLYE (SEQ ID NO: 2)-binding proteins were isolated from the cell lysate through centrifugation, washed, and then boiled for 10 minutes. The bead-binding proteins were isolated by SDS-PAGE, and immunoblotting was performed with an antibody with respect to VEGFR-2 or VEGFR-1."}, "HUVECs [1]": {"test_system": "HUVECs", "experiment": "HUVEC migration, transwell (Boyden chamber) assay", "format": "cell-based, human", "protocol": "HUVEC migration was analyzed using a transwell plate equipped with a 6.5-mm-diameter polycarbonate filter (8-μm pore size). A lower surface of the filter was coated with 10 μg of gelatin. […] Following incubation with various concentrations of tetrapeptides at room temperature for 30 minutes, HUVECs (1×10^6 cells/100 μl) were placed in upper wells. The cells were incubated at 37° C. in a constant temperature and humidity chamber for 4 hours. The migrated cells were stained with hematoxylin and eosin, and quantified under an optical microscope."}, "VEGFR-2": {"molecular_target": "VEGFR-2 (Homo sapiens, UniProt P35968)", "sequence (P35968 20-1356)": "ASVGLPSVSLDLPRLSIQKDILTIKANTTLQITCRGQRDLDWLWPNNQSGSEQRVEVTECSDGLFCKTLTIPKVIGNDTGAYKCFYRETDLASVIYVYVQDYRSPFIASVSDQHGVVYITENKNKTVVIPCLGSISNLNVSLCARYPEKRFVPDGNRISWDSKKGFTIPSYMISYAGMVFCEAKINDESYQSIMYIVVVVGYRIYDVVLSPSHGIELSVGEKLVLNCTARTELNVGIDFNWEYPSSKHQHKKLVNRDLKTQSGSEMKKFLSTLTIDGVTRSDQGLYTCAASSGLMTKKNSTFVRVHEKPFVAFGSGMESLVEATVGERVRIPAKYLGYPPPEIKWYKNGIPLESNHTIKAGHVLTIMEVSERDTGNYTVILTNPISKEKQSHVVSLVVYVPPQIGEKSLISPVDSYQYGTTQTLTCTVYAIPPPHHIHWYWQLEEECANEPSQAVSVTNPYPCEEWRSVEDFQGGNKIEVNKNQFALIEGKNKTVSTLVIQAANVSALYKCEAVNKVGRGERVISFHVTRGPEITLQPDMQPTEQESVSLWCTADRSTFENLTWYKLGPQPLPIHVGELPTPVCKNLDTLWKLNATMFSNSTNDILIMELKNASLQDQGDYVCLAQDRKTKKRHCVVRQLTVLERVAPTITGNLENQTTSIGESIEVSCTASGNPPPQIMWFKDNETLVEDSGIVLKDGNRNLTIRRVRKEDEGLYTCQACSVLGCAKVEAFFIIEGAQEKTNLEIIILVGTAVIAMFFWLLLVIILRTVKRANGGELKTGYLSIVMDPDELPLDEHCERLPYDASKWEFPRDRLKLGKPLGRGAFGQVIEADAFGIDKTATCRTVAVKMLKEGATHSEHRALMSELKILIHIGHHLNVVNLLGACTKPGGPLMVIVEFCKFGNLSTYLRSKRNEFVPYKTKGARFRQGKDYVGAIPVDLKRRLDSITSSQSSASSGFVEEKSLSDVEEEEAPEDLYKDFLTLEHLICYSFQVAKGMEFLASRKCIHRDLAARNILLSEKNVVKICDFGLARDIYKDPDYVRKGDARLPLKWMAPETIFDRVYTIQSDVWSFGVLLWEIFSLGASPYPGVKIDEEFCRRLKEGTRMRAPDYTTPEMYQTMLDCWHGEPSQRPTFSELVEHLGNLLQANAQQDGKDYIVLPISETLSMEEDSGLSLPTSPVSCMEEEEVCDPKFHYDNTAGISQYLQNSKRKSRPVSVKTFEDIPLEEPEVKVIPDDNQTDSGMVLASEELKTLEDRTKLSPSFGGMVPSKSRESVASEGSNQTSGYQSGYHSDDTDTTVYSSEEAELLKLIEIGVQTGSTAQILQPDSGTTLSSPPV", "experiment": "VEGFR pull-down assay using biotin-labeled RLYE, VEGFR-2", "format": "binding", "parameters": "endogenous in cells; host or cells: HUVEC", "conditions": "HUVEC lysate", "protocol": "as §1"}, "[2]": {"test_system": "chick chorioallantoic membrane (CAM)", "experiment": "Chick chorioallantoic membrane (CAM) analysis", "format": "in vivo", "conditions": "RLYE 0.75 nM, VEGF 50 ng/ml", "protocol": "For a chick chorioallantoic membrane (CAM) analysis, fertilized eggs were incubated for 3 days, and a window was made in the same manner as used in the previous research (18). The window (with a diameter of about 3 cm) was made by removing a shell and an inner layer of the shell, and the exposed part was sealed with cellophane tape. The eggs were stood upright at 37° C. in an incubator (with a humidity of 55 to 60%) and were incubated for 3 days. A Thermanox disc containing 10 μl of a salt-free solution containing RLYE (SEQ ID NO: 2) (0.75 nM) alone or in combination with VEGF (50 ng/ml) was gently placed on a CAM that had been incubated for 10 days. After 72-hour incubation, blood vessels formed above were stained by injecting 1 ml of a 10% intralipose (fat emulsion) solution right under the CAM. The stained blood vessels were photographed using a Nikon digital camera, and the number of blood vessels newly formed around the disc was counted."}, "aortic ring": {"test_system": "aortic ring", "experiment": "Aortic ring sprouting assay (ex vivo)", "parameters": "species or system Sprague-Dawley rat", "conditions": "RLYE 0.3 nM, VEGF 20 ng/ml", "protocol": "An aortic ring sprouting assay was performed by a method modified based on previous research. A 1-mm-thick aortic ring prepared from a Sprague-Dawley rat (7-week-old male) was placed in a 96-well plate coated with 120 μl of Matrigel, sealed with 50 μl of Matrigel, and incubated with RLYE (SEQ ID NO: 2) (0.3 nM) or VEGF (20 ng/ml) in a total of 200 μl of a serum-free medium. Blood vessels newly formed at day 6 were fixed, microvascular formation was observed under a phase-contrast microscope, and angiogenesis was quantified with Image Jsoftware available at NIH website, rsb.info.nih.gov/ij."}, "[3]": {"test_system": "HCT116 human colorectal tumor cells", "experiment": "Human colorectal tumor (HCT116) xenograft model", "format": "in vivo, nude mouse", "protocol": "100 μl each of 2×10^6 B16F1 mouse melanoma cells and 1×10^7 HCT116 human colorectal tumor cells were subcutaneously injected into the left side of a C57BL/6J mouse and a nude mouse. After a tumor volume reached at least 50 to 70 mm3 (taking about 7 days), saline or RLYE (SEQ ID NO: 2) (0.5 or 1.0 mg/kg) was peritoneally injected daily into the mice. A tumor size was two-dimensionally measured with calipers. A tumor volume (mm3) was calculated by a formula of […]. Following homogenization of tumor tissue with PBS and centrifugation (at 12,000×g for 5 min), a hemoglobin-containing supernatant was extracted to be used in analysis with Drabkin's reagent (Sigma). A hemoglobin level was measured by a cyanmethemoglobin method, and the amount of hemoglobin per gram of the tumor was calculated.\nTumor tissue was fixed in 10% formalin, and inserted into paraffin. A slide was prepared from a tissue section, embedded in xylene to remove the paraffin, and rehydrated with 100%, 95%, 80% and 70% ethanol (EtOH) in s stepwise manner. Afterward, the slide was washed with deionized water multiple times at room temperature. To inhibit an intracellular peroxidase activity, the section was reacted in 0.3% hydrogen peroxide-containing methanol for 15 minutes, washed with PBS three times, reacted in 3% goat serum-containing PBS at room temperature for 2 hours, and reacted with a PECAM-1 antibody overnight at 4° C. The tissue section slide was washed with PBS three times, and reacted with a TRITC-conjugated secondary antibody for 1 hour. In addition, the tumor tissue section was also reacted with FITC-isolectin B4 ([…]; Vector Laboratories) for 1 hour. The tissue section was washed with PBS three times, and treated with a Permount solution to make a slide, followed by observation of tumor blood vessels under a fluorescence microscope."}, "HUVECs [4]": {"test_system": "HUVECs", "experiment": "VEGF-induced HUVEC proliferation, [3H]-thymidine incorporation assay", "format": "cell-based, human", "protocol": "Human umbilical vein endothelial cells (HUVECs) were cultured in M199 medium, and during experiments, the cells were always used at passages 2 to 7. Meanwhile, mouse melanoma cells (B16F1 and B16F10) and human colorectal tumor cells (HCT116) were cultured in RPMI media supplemented with 10% FBS, 1 mM sodium pyruvate, 10 mM 4-(2-hydroxyethyl)-1-piperazineethanesulfonic acid and 100 U/ml penicillin-streptomycin, and human multiple myeloma cells (IM-9 and RPMI 8226) were cultured in RPMI-1640 media. All of the cells were cultured at 37° C. with 5% CO2 in a humidified incubator.\nAngiogenic activity was determined by measuring cell proliferation, migration and tube formation. HUVEC proliferation was analyzed by a [3H]-thymidine incorporation assay. The HUVECs were seeded in a 24-well plate coated with gelatin at a density of 2×10^4 cells/well. […] […] […] 3H-labeled polymer DNA was evaluated with a liquid scintillation counter."}, "[5]": {"conditions": "0.5 or 1.0 mg/kg per day peritoneally"}}, "note": "Entries after “also recorded” stand apart in the source; their conditions may differ. Where a SMILES comes first, the peptide text is derived from it.", "data": [{"smiles": "CC(C)C[C@H](NC(=O)[C@@H](N)CCCNC(=N)N)C(=O)N[C@@H](Cc1ccc(O)cc1)C(=O)N[C@@H](CCC(=O)O)C(=O)O", "note": "[RLYE] (H-RLYE-OH; N-terminus and C-terminus assumed)", "values": [{"measurement": "binding to VEGFR-1 (pull-down)", "setting": "VEGFR-1", "result": "does not bind to VEGFR-1"}, {"measurement": "EGF-induced migration of HUVECs", "setting": "HUVECs [1]; EGF stimulated", "result": "does not affect"}, {"measurement": "P1GF-induced HUVEC migration", "setting": "HUVECs [1]; P1GF (ligand of VEGFR-1)", "result": "does not inhibit"}, {"measurement": "inhibition of VEGF-induced HUVEC migration", "setting": "HUVECs [1]; VEGF / VEGF-A stimulated", "result": "effectively inhibited; also recorded: certainly inhibits; also recorded: concentration-dependently inhibited"}, {"measurement": "VEGF-B-induced HUVEC migration", "setting": "HUVECs [1]; VEGF-B (ligand of VEGFR-1)", "result": "does not inhibit"}, {"measurement": "bFGF-induced migration of HUVECs", "setting": "HUVECs [1]; bFGF stimulated", "result": "did not inhibit"}, {"measurement": "binding to VEGFR-2 (pull-down)", "setting": "VEGFR-2", "result": "binds to VEGFR-2"}, {"measurement": "VEGF-A-induced blood vessel density in CAM", "setting": "[2]", "result": "considerable reduction"}, {"measurement": "VEGF-A-induced angiogenesis at the edge of the aortic ring", "setting": "aortic ring", "result": "significantly inhibited"}, {"measurement": "invasion of HUVECs into tumor tissue (isolectin B4 / PECAM-1 immunostaining)", "setting": "[3]", "result": "decreased depending on the amount of treated RLYE"}, {"measurement": "tumor growth", "setting": "[3]; [5]", "result": "concentration-dependently inhibited"}, {"measurement": "tumor size", "setting": "[3]; [5]", "result": "significantly reduced"}, {"measurement": "decrease in hemoglobin content in tumor tissue", "setting": "[3]; compared with a control", "result": 41, "unit": "%"}, {"measurement": "inhibition of VEGF-induced HUVEC proliferation", "setting": "HUVECs [4]; VEGF 10 ng/ml, [3H]-thymidine incorporation", "result": "effectively inhibited"}, {"measurement": "IC50 lower than that of the control KLYD (HUVEC proliferation)", "setting": "HUVECs [4]; versus KLYD", "result": 10, "unit": "fold"}]}]}
